From ChEMBL document CHEMBL5338723, “Emerging Target-Directed Approaches for the Treatment and Diagnosis of Microbial Infections” (J Med Chem, 2023)
In brackets after ≈: the same amount, converted by molar mass. *1 amine or outer side, *2 acyl side, *3 side chain or, on linkers, in order; H or OH if unused. Where a SMILES comes first, the peptide text is derived from it. [ ]: non-standard residue; d: D form. X2 = Cn1c(=O)n([C@@H]2S[C@H]([C@@H](O)[C@@H](N[*:1])C(=O)[*:2])[C@H](O)[C@H]2O)cc/c1=N/C(N)=O; Orn(N5-OH,N5-Ac) = CC(=O)N(O)CCC[C@H](N)C(=O)O

Tests used:
Format in all cases: functional
[1] = system: Escherichia coli; assay: Antimicrobial activity against Escherichia coli assessed as microbial growth inhibition
[2] = system: Streptococcus pneumoniae; assay: Antimicrobial activity against Streptococcus pneumoniae assessed as microbial growth inhibition
[3] = system: Staphylococcus aureus; assay: Antimicrobial activity against Staphylococcus aureus assessed as microbial growth inhibition
[4] = system: Bacillus subtilis; assay: Antimicrobial activity against Bacillus subtilis assessed as microbial growth inhibition
[5] = system: Salmonella typhimurium; assay: Antimicrobial activity against Salmonella enterica subsp. enterica serovar Typhimurium assessed as increase in microbial growth inhibition
[6] = system: Salmonella enteritidis; assay: Antimicrobial activity against Salmonella enterica subsp. enterica serovar Enteritidis assessed as increase in microbial growth inhibition
[7] = system: Mycobacterium tuberculosis; assay: Antimicrobial activity against Mycobacterium tuberculosis H37Rv assessed as microbial growth inhibition
[8] = system: Acinetobacter baumannii; assay: Antimicrobial activity against Acinetobacter baumannii ATCC 17978 assessed as microbial growth inhibition under iron-deficient condition
[9] = system: Pseudomonas aeruginosa; assay: Antibacterial activity against Wild type Pseudomonas aeruginosa KW799 assessed as microbial growth inhibition incubated for 20 hrs in iron depleted media by CLSI protocol based broth microdilution method
[10] = system: Pseudomonas aeruginosa; assay: Antibacterial activity against Pseudomonas aeruginosa KW799/61 assessed as microbial growth inhibition incubated for 20 hrs in iron depleted media by CLSI protocol based broth microdilution method
[11] = system: Pseudomonas aeruginosa; assay: Antibacterial activity against Pseudomonas aeruginosa PAO1 assessed as microbial growth inhibition incubated for 20 hrs in iron depleted media by CLSI protocol based broth microdilution method
[12] = system: Pseudomonas aeruginosa; assay: Antibacterial activity against Pseudomonas aeruginosa Pa4 assessed as microbial growth inhibition incubated for 20 hrs in iron depleted media by CLSI protocol based broth microdilution method
[13] = system: Enterococcus faecium; assay: Antimicrobial activity against vancomycin-resistant Enterococcus faecium ATCC 51559 assessed as microbial growth inhibition
[14] = system: Enterococcus faecalis; assay: Antimicrobial activity against vancomycin-resistant Enterococcus faecalis ATCC 51575 assessed as microbial growth inhibition
[15] = system: Staphylococcus aureus; assay: Antimicrobial activity against vancomycin intermediate Staphylococcus aureus assessed as microbial growth inhibition
[16] = system: Staphylococcus aureus; assay: Antimicrobial activity against methicillin-resistant Staphylococcus aureus ATCC 33591 assessed as microbial growth inhibition
[17] = system: Acinetobacter baumannii; assay: Antimicrobial activity against Acinetobacter baumannii ATCC 17961 assessed as microbial growth inhibition
[18] = system: Acinetobacter baumannii; assay: Antimicrobial activity against Acinetobacter baumannii ARC 3484 assessed as microbial growth inhibition
[19] = system: Acinetobacter baumannii; assay: Antimicrobial activity against Acinetobacter baumannii ARC 3486 assessed as microbial growth inhibition
[20] = system: Acinetobacter baumannii; assay: Antimicrobial activity against Acinetobacter baumannii ARC 5079 assessed as microbial growth inhibition
[21] = system: Acinetobacter baumannii; assay: Antimicrobial activity against Acinetobacter baumannii ARC 5081 assessed as microbial growth inhibition
[22] = system: Acinetobacter baumannii; assay: Antimicrobial activity against Acinetobacter baumannii ATCC 17978 assessed as microbial growth inhibition
[23] = system: Acinetobacter baumannii; assay: Antimicrobial activity against Acinetobacter baumannii ATCC 17978 pNT165 producing carbapenamase assessed as microbial growth inhibition
[24] = system: Acinetobacter baumannii; assay: Antimicrobial activity against Acinetobacter baumannii ATCC BAA 1710 assessed as microbial growth inhibition
[25] = system: Acinetobacter baumannii; assay: Antimicrobial activity against Acinetobacter baumannii ATCC 17978 pNT221 assessed as microbial growth inhibition
[26] = system: Acinetobacter baumannii; assay: Antimicrobial activity against Acinetobacter baumannii ATCC 17978 pNT255 assessed as microbial growth inhibition
[27] = system: Acinetobacter baumannii; assay: Antimicrobial activity against Acinetobacter baumannii ATCC 17978 pNT320 producing cephalosporinase assessed as microbial growth inhibition
[28] = system: Acinetobacter baumannii; assay: Antimicrobial activity against Acinetobacter baumannii ATCC BAA 1793 assessed as microbial growth inhibition
[29] = system: Acinetobacter baumannii; assay: Antimicrobial activity against Acinetobacter baumannii ATCC BAA 1797 assessed as microbial growth inhibition
[30] = system: Acinetobacter baumannii; assay: Antimicrobial activity against Acinetobacter baumannii ATCC BAA 1800 assessed as microbial growth inhibition

Compound: CC(=O)N(O)CCC[C@H](NC(=O)[C@H](CCCN(O)C(C)=O)NC(=O)[C@@H](N)CCCN(O)C(C)=O)C(=O)N[C@@H](CO)C(=O)N[C@@H](C(=O)O)[C@H](O)[C@H]1S[C@@H](n2cc/c(=N/C(N)=O)n(C)c2=O)[C@H](O)[C@H]1O (H-[Orn(N5-OH,N5-Ac)][Orn(N5-OH,N5-Ac)][Orn(N5-OH,N5-Ac)]S[X2]-OH)
- MIC [1]: 0.031 µg/mL (≈ 0.0312 µM)
- MIC [2]: 0.063 µg/mL (≈ 0.0634 µM)
- MIC [3]: 0.063 µg/mL (≈ 0.0634 µM)
- MIC [4]: 0.063 µg/mL (≈ 0.0634 µM)

Compound: CC1(C)S[C@@H]2[C@H](NC(=O)[C@H](NC(=O)CCCc3cn(CCOCCOCCOCCNC(=O)c4cc(O)c(O)c(C(=O)N[C@H]5COC(=O)[C@@H](NC(=O)c6cccc(O)c6O)COC(=O)[C@@H](NC(=O)c6cccc(O)c6O)COC5=O)c4)nn3)c3ccccc3)C(=O)N2[C@H]1C(=O)O
- MIC [5]: 0.01 µM
- MIC [6]: 0.01 µM

Compound: Oc1nc2ccccc2nc1O
- MIC [7]: > 59.2 µM

Compound: CC(=O)N(O)CCCCNC(=O)[C@H](COC(=O)c1cccc(O)c1O)NC(=O)[C@H]1N=C(c2cc(CCCCC(=O)N[C@@H](C(=O)N[C@@H]3C(=O)N4C(C(=O)O)=C(Cl)CS[C@H]34)c3ccccc3)cc(O)c2O)O[C@@H]1C
- MIC [8]: 0.5 µg/mL (≈ 0.481 µM)

Compound: CC(=O)Oc1cccc(C(=O)NCCCC(CCCNC(=O)c2cccc(OC(C)=O)c2OC(C)=O)(CCCNC(=O)c2cccc(OC(C)=O)c2OC(C)=O)NC(=O)CCC(=O)NC(C(=O)NC2C(=O)N3C2SC(C)(C)[C@@H]3C(=O)O)c2ccc(O)cc2)c1OC(C)=O (stereo not given in full)
- MIC [9]: 0.05 µM (≈ 0.0655 µg/mL)
- MIC [10]: 0.05 µM (≈ 0.0655 µg/mL)
- MIC [11]: 0.05 µM (≈ 0.0655 µg/mL)
- MIC [12]: 0.05 µM (≈ 0.0655 µg/mL)

Compound: CC1=C(C(=O)O)N2C(=O)[C@@H](NC(=O)[C@H](NC(=O)CCCc3cn(CCOCCOCCOCCNC(=O)c4cc(O)c(O)c(C(=O)N[C@H]5COC(=O)[C@@H](NC(=O)c6cc([C@@H]7O[C@H](CO)[C@@H](O)[C@H](O)[C@H]7O)cc(O)c6O)COC(=O)[C@@H](NC(=O)c6cc([C@@H]7O[C@H](CO)[C@@H](O)[C@H](O)[C@H]7O)cc(O)c6O)COC5=O)c4)nn3)c3ccccc3)[C@H]2SC1
- MIC [5]: 0.01 µM
- MIC [6]: 0.01 µM

Compound: CN[C@H](CC(C)C)C(=O)N[C@H]1C(=O)N[C@@H](CC(N)=O)C(=O)N[C@H]2C(=O)N[C@H]3C(=O)N[C@H](C(=O)N[C@H](C(=O)NCCCNC(=O)[C@H](O)[C@@H](O)[C@H](O)[C@H](O)CO)c4cc(O)cc(O)c4-c4cc3ccc4O)[C@H](O)c3ccc(c(Cl)c3)Oc3cc2cc(c3O[C@@H]2O[C@H](CO)[C@@H](O)[C@H](O)[C@H]2O[C@H]2C[C@](C)(N)[C@H](O)[C@H](C)O2)Oc2ccc(cc2Cl)[C@H]1O
- MIC [13]: 54 µM (≈ 90.9 µg/mL)
- MIC [14]: 60 µM (≈ 101 µg/mL)
- MIC [15]: 0.9 µM (≈ 1.52 µg/mL)
- MIC [16]: 0.6 µM (≈ 1.01 µg/mL)

Compound: CCCCCCCCCC(=O)N[C@@H](Cc1c[nH]c2ccccc12)C(=O)N[C@H](CC(N)=O)C(=O)N[C@@H](CC(=O)O)C(=O)N[C@@H]1C(=O)NCC(=O)N[C@@H](CCCNC(=O)CCCC(=O)N(O)CCCCCNC(=O)CCCN(CCCCNC(=O)c2cccc(O)c2O)CCCNC(=O)c2cccc(O)c2O)C(=O)N[C@@H](CC(=O)O)C(=O)N[C@H](C)C(=O)N[C@@H](CC(=O)O)C(=O)NCC(=O)N[C@H](CO)C(=O)N[C@@H](C(C)CC(=O)O)C(=O)N[C@@H](CC(=O)c2ccccc2N)C(=O)O[C@@H]1C (stereo not given in full)
- MIC [17]: 0.2 µM (≈ 0.464 µg/mL)
- MIC [18]: 0.2 µM (≈ 0.464 µg/mL)
- MIC [19]: 0.2 µM (≈ 0.464 µg/mL)
- MIC [20]: 0.2 µM (≈ 0.464 µg/mL)
- MIC [21]: 0.2 µM (≈ 0.464 µg/mL)
- MIC [22]: 0.2 µM (≈ 0.464 µg/mL)
- MIC [23]: 0.2 µM (≈ 0.464 µg/mL)
- MIC [24]: 0.2 µM (≈ 0.464 µg/mL)
- MIC [25]: 0.2 µM (≈ 0.464 µg/mL)
- MIC [26]: 0.2 µM (≈ 0.464 µg/mL)
- MIC [27]: 0.2 µM (≈ 0.464 µg/mL)
- MIC [28]: 0.2 µM (≈ 0.464 µg/mL)
- MIC [29]: 0.2 µM (≈ 0.464 µg/mL)
- MIC [30]: 0.2 µM (≈ 0.464 µg/mL)

Compound: CN[C@H](CC(C)C)C(=O)N[C@H]1C(=O)N[C@@H](CC(N)=O)C(=O)N[C@H]2C(=O)N[C@H]3C(=O)N[C@H](C(=O)N[C@H](C(=O)NCCCNC(=O)[C@H](O)[C@@H](O)[C@H](O[C@H]4O[C@@H](CO)[C@@H](O)[C@@H](O)[C@@H]4O)[C@H](O)CO)c4cc(O)cc(O)c4-c4cc3ccc4O)[C@H](O)c3ccc(c(Cl)c3)Oc3cc2cc(c3O[C@@H]2O[C@H](CO)[C@@H](O)[C@H](O)[C@H]2O[C@H]2C[C@](C)(N)[C@H](O)[C@H](C)O2)Oc2ccc(cc2Cl)[C@H]1O
- MIC [13]: 36 µM (≈ 66.4 µg/mL)
- MIC [14]: 30 µM (≈ 55.4 µg/mL)
- MIC [15]: 0.3 µM (≈ 0.554 µg/mL)
- MIC [16]: 0.4 µM (≈ 0.738 µg/mL)

Compound: CCCCCCCCCCN[C@@]1(C)C[C@H](O[C@H]2[C@H](Oc3c4cc5cc3Oc3ccc(cc3Cl)[C@@H](O)[C@@H](NC(=O)[C@@H](CC(C)C)NC)C(=O)N[C@@H](CC(N)=O)C(=O)N[C@H]5C(=O)N[C@H]3C(=O)N[C@H](C(=O)N[C@H](C(=O)NCCCNC(=O)[C@H](O)[C@@H](O)[C@H](O[C@H]5O[C@@H](CO)[C@@H](O)[C@@H](O)[C@@H]5O)[C@H](O)CO)c5cc(O)cc(O)c5-c5cc3ccc5O)[C@H](O)c3ccc(c(Cl)c3)O4)O[C@H](CO)[C@@H](O)[C@@H]2O)O[C@@H](C)[C@H]1O
- MIC [13]: 0.2 µM (≈ 0.397 µg/mL)
- MIC [14]: 0.2 µM (≈ 0.397 µg/mL)
- MIC [15]: 0.2 µM (≈ 0.397 µg/mL)
- MIC [16]: 0.2 µM (≈ 0.397 µg/mL)
